# Activity calls are given as the source filed them. The calls are words filed in the database; no cut-off is given here.
# How the values were obtained:
# [1] = target: Metabotropic glutamate receptor 1 (Rattus norvegicus) (UniProt P23385); assay: Agonist activity at rat mGluR1 receptor expressed in HEK293 cells at 100 uM by IP-1 HTRF assay; type: functional, cell-based
# [2] = target: Metabotropic glutamate receptor 5 (Rattus norvegicus) (UniProt P31424); assay: Agonist activity at rat mGluR5 receptor expressed in HEK293 cells at 100 uM by IP-1 HTRF assay; type: functional, cell-based
# [3] = target: Metabotropic glutamate receptor 2 (Rattus norvegicus) (UniProt P31421); assay: Agonist activity at rat mGluR2 receptor expressed in HEK293 cells at 100 uM by IP-1 HTRF assay; type: functional, cell-based
# [4] = target: Metabotropic glutamate receptor 3 (Rattus norvegicus) (UniProt P31422); assay: Agonist activity at rat mGluR3 receptor expressed in HEK293 cells at 100 uM by IP-1 HTRF assay; type: functional, cell-based
# [5] = target: Metabotropic glutamate receptor 4 (Rattus norvegicus) (UniProt P31423); assay: Agonist activity at rat mGluR4 receptor expressed in HEK293 cells at 100 uM by IP-1 HTRF assay; type: functional, cell-based
# [6] = target: Metabotropic glutamate receptor 6 (Rattus norvegicus) (UniProt P35349); assay: Agonist activity at rat mGluR6 receptor expressed in HEK293 cells at 100 uM by IP-1 HTRF assay; type: functional, cell-based
# [7] = target: Metabotropic glutamate receptor 7 (Rattus norvegicus) (UniProt P35400); assay: Agonist activity at rat mGluR7 receptor expressed in HEK293 cells at 100 uM by IP-1 HTRF assay; type: functional, cell-based
# [8] = target: Metabotropic glutamate receptor 8 (Rattus norvegicus) (UniProt P70579); assay: Agonist activity at rat mGluR8 receptor expressed in HEK293 cells at 100 uM by IP-1 HTRF assay; type: functional, cell-based
# [9] = target: Metabotropic glutamate receptor 1 (Rattus norvegicus) (UniProt P23385); assay: Antagonist activity at rat mGluR1 receptor expressed in HEK293 cells by IP-1 HTRF assay; type: functional, cell-based
# [10] = target: Metabotropic glutamate receptor 5 (Rattus norvegicus) (UniProt P31424); assay: Antagonist activity at rat mGluR5 receptor expressed in HEK293 cells by IP-1 HTRF assay; type: functional, cell-based
# [11] = target: Metabotropic glutamate receptor 2 (Rattus norvegicus) (UniProt P31421); assay: Antagonist activity at rat mGluR2 receptor expressed in HEK293 cells by IP-1 HTRF assay; type: functional, cell-based
# [12] = target: Metabotropic glutamate receptor 3 (Rattus norvegicus) (UniProt P31422); assay: Antagonist activity at rat mGluR3 receptor expressed in HEK293 cells by IP-1 HTRF assay; type: functional, cell-based
# [13] = target: Metabotropic glutamate receptor 4 (Rattus norvegicus) (UniProt P31423); assay: Antagonist activity at rat mGluR4 receptor expressed in HEK293 cells by IP-1 HTRF assay; type: functional, cell-based
# [14] = target: Metabotropic glutamate receptor 6 (Rattus norvegicus) (UniProt P35349); assay: Antagonist activity at rat mGluR6 receptor expressed in HEK293 cells by IP-1 HTRF assay; type: functional, cell-based
# [15] = target: Metabotropic glutamate receptor 7 (Rattus norvegicus) (UniProt P35400); assay: Antagonist activity at rat mGluR7 receptor expressed in HEK293 cells by IP-1 HTRF assay; type: functional, cell-based
# [16] = target: Metabotropic glutamate receptor 8 (Rattus norvegicus) (UniProt P70579); assay: Antagonist activity at rat mGluR8 receptor expressed in HEK293 cells by IP-1 HTRF assay; type: functional, cell-based
# [17] = target: Metabotropic glutamate receptor 2 (Rattus norvegicus, UniProt P31421); assay: Agonist activity at rat mGluR2 receptor expressed in HEK293 cells by IP-1 HTRF assay; type: functional, cell-based; details: read-out: EC50
# [18] = target: Metabotropic glutamate receptor 3 (Rattus norvegicus, UniProt P31422); assay: Agonist activity at rat mGluR3 receptor expressed in HEK293 cells by IP-1 HTRF assay; type: functional, cell-based
# [19] = target: Metabotropic glutamate receptor 3 (Rattus norvegicus) (UniProt P31422); assay: Agonist activity at rat mGluR3 receptor expressed in HEK293 cells at 3 uM by IP-1 HTRF assay; type: functional, cell-based; details: filed as agonist
# [20] = target: Metabotropic glutamate receptor 1 (Rattus norvegicus, UniProt P23385); assay: Agonist activity at rat mGluR1 receptor expressed in HEK293 cells by IP-1 HTRF assay; type: functional, cell-based
# [21] = target: Metabotropic glutamate receptor 5 (Rattus norvegicus, UniProt P31424); assay: Agonist activity at rat mGluR5 receptor expressed in HEK293 cells by IP-1 HTRF assay; type: functional, cell-based
# [22] = target: Metabotropic glutamate receptor 4 (Rattus norvegicus) (UniProt P31423); assay: Agonist activity at rat mGluR4 receptor expressed in HEK293 cells at 30 uM by IP-1 HTRF assay; type: functional, cell-based
# [23] = target: Metabotropic glutamate receptor 6 (Rattus norvegicus, UniProt P35349); assay: Agonist activity at rat mGluR6 receptor expressed in HEK293 cells by IP-1 HTRF assay; type: functional, cell-based
# [24] = target: Metabotropic glutamate receptor 7 (Rattus norvegicus) (UniProt P35400); assay: Agonist activity at rat mGluR7 receptor expressed in HEK293 cells at 30 uM by IP-1 HTRF assay; type: functional, cell-based
# [25] = target: Metabotropic glutamate receptor 8 (Rattus norvegicus) (UniProt P70579); assay: Agonist activity at rat mGluR8 receptor expressed in HEK293 cells at 30 uM by IP-1 HTRF assay; type: functional, cell-based
# Rattus norvegicus [26] = species: Rattus norvegicus; assay: Selectivity ratio of EC50 for agonist activity at rat mGluR3 receptor expressed in HEK293 cells to EC50 for agonist activity at rat mGluR2 receptor expressed in HEK293 cells; type: cell-based
# Rattus norvegicus [27] = species: Rattus norvegicus; assay: Selectivity ratio of EC50 for agonist activity at rat mGluR1 receptor expressed in HEK293 cells to EC50 for agonist activity at rat mGluR2 receptor expressed in HEK293 cells; type: cell-based
# Rattus norvegicus [28] = species: Rattus norvegicus; assay: Selectivity ratio of EC50 for agonist activity at rat mGluR5 receptor expressed in HEK293 cells to EC50 for agonist activity at rat mGluR2 receptor expressed in HEK293 cells; type: cell-based
# Rattus norvegicus [29] = species: Rattus norvegicus; assay: Selectivity ratio of EC50 for agonist activity at rat mGluR4 receptor expressed in HEK293 cells to EC50 for agonist activity at rat mGluR2 receptor expressed in HEK293 cells; type: cell-based
# Rattus norvegicus [30] = species: Rattus norvegicus; assay: Selectivity ratio of EC50 for agonist activity at rat mGluR6 receptor expressed in HEK293 cells to EC50 for agonist activity at rat mGluR2 receptor expressed in HEK293 cells; type: cell-based
# Rattus norvegicus [31] = species: Rattus norvegicus; assay: Selectivity ratio of EC50 for agonist activity at rat mGluR7 receptor expressed in HEK293 cells to EC50 for agonist activity at rat mGluR2 receptor expressed in HEK293 cells; type: cell-based
# Rattus norvegicus [32] = species: Rattus norvegicus; assay: Selectivity ratio of EC50 for agonist activity at rat mGluR8 receptor expressed in HEK293 cells to EC50 for agonist activity at rat mGluR2 receptor expressed in HEK293 cells; type: cell-based
# [33] = target: Metabotropic glutamate receptor 2 (Homo sapiens, UniProt Q14416); assay: Agonist activity at mGluR2 receptor (unknown origin); type: functional
# Chain of Metabotropic glutamate receptor 2 (Rattus norvegicus) (P31421 19-872 limits assumed): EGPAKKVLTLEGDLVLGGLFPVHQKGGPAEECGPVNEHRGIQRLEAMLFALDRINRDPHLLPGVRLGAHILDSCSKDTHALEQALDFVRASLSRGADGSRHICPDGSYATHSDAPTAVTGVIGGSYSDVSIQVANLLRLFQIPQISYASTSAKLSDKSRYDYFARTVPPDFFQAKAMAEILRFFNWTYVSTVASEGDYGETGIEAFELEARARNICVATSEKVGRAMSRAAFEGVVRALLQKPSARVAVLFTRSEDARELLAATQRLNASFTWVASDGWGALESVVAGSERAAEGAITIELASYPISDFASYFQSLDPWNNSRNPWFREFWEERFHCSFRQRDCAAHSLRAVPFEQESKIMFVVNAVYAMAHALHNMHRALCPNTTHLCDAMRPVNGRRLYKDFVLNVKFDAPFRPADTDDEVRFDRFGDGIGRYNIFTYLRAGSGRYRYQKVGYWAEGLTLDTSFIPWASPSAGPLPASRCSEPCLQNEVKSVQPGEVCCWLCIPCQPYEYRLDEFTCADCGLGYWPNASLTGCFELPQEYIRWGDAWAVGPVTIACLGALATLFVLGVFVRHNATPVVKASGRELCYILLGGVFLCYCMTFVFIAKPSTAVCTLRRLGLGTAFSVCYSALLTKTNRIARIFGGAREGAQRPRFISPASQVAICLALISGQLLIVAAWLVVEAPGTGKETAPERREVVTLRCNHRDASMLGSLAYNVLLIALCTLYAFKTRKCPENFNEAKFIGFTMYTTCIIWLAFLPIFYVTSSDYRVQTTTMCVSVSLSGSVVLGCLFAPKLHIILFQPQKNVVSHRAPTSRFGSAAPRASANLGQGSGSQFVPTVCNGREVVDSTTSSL
# Chain of Metabotropic glutamate receptor 3 (Rattus norvegicus) (P31422 23-879 limits assumed): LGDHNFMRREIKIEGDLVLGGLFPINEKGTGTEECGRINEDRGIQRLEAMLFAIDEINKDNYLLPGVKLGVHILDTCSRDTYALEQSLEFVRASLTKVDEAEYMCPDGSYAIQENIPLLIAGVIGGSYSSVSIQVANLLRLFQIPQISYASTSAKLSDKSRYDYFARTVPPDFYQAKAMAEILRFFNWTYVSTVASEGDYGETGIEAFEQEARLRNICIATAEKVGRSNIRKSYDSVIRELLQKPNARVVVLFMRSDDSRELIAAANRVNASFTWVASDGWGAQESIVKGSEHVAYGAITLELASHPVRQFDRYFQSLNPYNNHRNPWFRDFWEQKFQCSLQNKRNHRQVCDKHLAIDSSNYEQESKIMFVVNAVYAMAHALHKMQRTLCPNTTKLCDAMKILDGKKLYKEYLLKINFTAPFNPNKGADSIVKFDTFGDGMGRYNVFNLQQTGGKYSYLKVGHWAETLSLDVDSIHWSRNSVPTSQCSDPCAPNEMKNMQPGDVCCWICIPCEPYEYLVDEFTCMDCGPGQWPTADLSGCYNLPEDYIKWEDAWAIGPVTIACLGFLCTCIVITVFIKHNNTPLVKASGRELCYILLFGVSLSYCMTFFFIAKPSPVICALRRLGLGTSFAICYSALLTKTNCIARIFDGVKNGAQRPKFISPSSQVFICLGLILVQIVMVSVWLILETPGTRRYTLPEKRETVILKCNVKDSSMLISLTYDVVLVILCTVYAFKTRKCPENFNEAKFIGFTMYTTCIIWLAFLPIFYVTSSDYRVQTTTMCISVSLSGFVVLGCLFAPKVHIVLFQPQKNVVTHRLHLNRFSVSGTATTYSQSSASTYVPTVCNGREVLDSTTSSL
# Chain of Metabotropic glutamate receptor 6 (Rattus norvegicus) (P35349 whole entry): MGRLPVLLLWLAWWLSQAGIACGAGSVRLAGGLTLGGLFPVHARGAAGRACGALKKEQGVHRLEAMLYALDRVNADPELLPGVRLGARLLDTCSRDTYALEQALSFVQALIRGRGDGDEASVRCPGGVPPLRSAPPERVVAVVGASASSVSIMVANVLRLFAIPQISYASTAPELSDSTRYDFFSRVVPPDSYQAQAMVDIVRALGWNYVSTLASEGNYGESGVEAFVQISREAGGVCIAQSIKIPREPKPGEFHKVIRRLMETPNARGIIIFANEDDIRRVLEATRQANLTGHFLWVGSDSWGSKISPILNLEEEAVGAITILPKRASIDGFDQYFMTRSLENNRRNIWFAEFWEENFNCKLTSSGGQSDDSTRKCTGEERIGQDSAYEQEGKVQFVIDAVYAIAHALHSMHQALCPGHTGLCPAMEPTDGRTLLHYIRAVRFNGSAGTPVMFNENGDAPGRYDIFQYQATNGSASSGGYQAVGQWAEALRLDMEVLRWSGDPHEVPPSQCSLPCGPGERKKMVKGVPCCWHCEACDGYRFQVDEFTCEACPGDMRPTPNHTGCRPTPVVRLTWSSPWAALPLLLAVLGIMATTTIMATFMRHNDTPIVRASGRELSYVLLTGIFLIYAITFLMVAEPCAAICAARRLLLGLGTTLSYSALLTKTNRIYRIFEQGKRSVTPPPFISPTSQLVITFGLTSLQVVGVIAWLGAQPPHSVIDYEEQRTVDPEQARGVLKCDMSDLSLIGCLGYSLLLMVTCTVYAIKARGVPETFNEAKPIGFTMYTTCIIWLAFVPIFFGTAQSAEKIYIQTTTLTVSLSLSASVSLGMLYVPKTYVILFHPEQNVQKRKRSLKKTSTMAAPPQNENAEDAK
# Chain of Metabotropic glutamate receptor 8 (Rattus norvegicus) (P70579 whole entry): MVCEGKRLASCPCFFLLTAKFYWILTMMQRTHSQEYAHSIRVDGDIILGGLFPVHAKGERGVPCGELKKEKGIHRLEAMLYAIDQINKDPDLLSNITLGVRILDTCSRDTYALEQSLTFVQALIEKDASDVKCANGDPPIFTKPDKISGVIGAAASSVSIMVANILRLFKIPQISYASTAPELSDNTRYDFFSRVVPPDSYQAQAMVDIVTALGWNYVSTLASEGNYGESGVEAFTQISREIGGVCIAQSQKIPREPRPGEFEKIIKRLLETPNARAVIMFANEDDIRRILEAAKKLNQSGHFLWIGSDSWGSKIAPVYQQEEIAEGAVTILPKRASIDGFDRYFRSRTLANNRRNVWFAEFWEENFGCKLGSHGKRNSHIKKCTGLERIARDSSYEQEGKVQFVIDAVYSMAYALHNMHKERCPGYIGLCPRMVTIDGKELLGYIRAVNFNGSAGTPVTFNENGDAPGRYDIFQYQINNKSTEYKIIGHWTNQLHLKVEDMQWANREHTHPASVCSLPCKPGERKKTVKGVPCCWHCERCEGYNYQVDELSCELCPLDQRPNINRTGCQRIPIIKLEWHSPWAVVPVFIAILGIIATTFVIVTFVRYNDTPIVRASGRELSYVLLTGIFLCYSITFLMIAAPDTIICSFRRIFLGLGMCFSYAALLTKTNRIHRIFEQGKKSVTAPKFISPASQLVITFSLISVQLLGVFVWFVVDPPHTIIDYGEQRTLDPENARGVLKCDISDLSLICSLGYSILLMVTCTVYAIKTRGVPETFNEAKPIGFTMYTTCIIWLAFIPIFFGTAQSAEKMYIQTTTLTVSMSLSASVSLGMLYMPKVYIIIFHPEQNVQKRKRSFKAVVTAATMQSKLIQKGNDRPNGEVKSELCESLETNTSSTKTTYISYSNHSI
# Chain of Metabotropic glutamate receptor 4 (Rattus norvegicus) (P31423 whole entry): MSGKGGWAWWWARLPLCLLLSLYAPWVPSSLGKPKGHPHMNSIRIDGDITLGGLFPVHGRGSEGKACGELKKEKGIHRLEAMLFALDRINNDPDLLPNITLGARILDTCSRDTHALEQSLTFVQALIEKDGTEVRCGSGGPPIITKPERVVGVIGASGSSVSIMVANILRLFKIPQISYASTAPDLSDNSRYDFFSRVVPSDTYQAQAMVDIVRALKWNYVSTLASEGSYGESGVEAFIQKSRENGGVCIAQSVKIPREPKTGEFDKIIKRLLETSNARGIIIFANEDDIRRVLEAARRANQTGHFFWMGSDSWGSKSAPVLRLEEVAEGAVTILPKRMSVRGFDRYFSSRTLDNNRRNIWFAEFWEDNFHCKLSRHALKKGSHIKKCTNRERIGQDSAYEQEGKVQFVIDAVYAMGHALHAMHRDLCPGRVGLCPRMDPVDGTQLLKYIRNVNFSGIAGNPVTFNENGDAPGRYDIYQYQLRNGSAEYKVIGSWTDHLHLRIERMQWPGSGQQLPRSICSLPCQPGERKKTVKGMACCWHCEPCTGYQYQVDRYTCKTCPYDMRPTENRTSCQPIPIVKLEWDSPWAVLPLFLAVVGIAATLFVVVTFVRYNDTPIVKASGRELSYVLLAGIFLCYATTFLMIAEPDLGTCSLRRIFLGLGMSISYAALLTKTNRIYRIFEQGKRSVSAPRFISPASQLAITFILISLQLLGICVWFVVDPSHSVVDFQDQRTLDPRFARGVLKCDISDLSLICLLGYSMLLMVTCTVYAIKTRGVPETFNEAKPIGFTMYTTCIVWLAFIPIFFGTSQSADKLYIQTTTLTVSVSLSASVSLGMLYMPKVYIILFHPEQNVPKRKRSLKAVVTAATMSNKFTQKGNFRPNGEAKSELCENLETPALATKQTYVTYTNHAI
# Chain of Metabotropic glutamate receptor 6 (P35349 whole entry): as the sequence (P35349 whole entry) above
smiles,measurement,setting,value
N[C@@H](C[C@H]1C[C@@H]1C(=O)O)C(=O)O,Activity,[1],inactive
same,Activity,[2],inactive
same,Activity,[3],inactive
same,Activity,[4],inactive
same,Activity,[5],inactive
same,Activity,[6],inactive
same,Activity,[7],inactive
same,Activity,[8],inactive
same,inhibition,[9],inactive
same,inhibition,[10],inactive
same,inhibition,[11],inactive
same,inhibition,[12],inactive
same,inhibition,[13],inactive
same,inhibition,[14],inactive
same,inhibition,[15],inactive
same,inhibition,[16],inactive
N[C@@]1(C(=O)O)CO[C@H]2[C@H](C(=O)O)[C@H]21 [LY-379268],EC50,[17],0.6 nM
same,EC50,[18],9 nM
same,Activity,[19],100%
C[C@@]1(C(=O)O)C[C@H]1[C@H](N)C(=O)O,EC50,[20]; read-out: EC50,5210 nM
same,EC50,[20]; read-out: pEC50 (converted),5130 nM
same,EC50,[21]; read-out: EC50,10600 nM
same,EC50,[21]; read-out: pEC50 (converted),11200 nM
same,EC50,[17],82 nM
same,EC50,[18],1220 nM
same,Activity,[22],inactive
same,EC50,[23]; read-out: EC50,2180 nM
same,EC50,[23]; read-out: pEC50 (converted),2140 nM
same,Activity,[24],inactive
same,Activity,[25],inactive
same,inhibition,[9],inactive
same,inhibition,[10],inactive
same,inhibition,[11],inactive
same,inhibition,[12],inactive
same,inhibition,[13],inactive
same,inhibition,[14],inactive
same,inhibition,[15],inactive
same,inhibition,[16],inactive
same,Ratio EC50,Rattus norvegicus [26],15
same,Ratio EC50,Rattus norvegicus [27],> 60
same,Ratio EC50,Rattus norvegicus [28],> 60
same,Ratio EC50,Rattus norvegicus [29],> 25
same,Ratio EC50,Rattus norvegicus [30],> 25
same,Ratio EC50,Rattus norvegicus [31],> 25
same,Ratio EC50,Rattus norvegicus [32],> 25
N[C@H](C(=O)O)[C@@H]1C[C@H]1C(=O)O,EC50,[33],300 nM

# From ChEMBL document CHEMBL5505966, “Synthesis and pharmacological characterization of conformationally restricted 2-amino-Adipic acid analogs and carboxycyclopropyl glycines as selective metabotropic glutamate 2 receptor agonists” (Eur J Med Chem, 2024)
